The data set relates to atherosclerosis in New Zealand white rabbit on high fat diet. To be noted: rabbit, in vivo. On the procedure:
New Zealand rabbits were adopted in this animal study and divided into 5 groups. They were high dose, medium dose and low dose of treatment, positive and vehicle control. The treatment groups were given APOAI via auricular vein once a week. […] Positive controls were given Liptor daily by p.o. with a dose of 0.45 mg/kg body weight. […] The study duration was 19 weeks. At the end of study, all animals were sacrificed. […] Lipid content was examined in liver and aorta. And liver index was also determined.
The body weight was between 1.8-2.0 kg. The animals were quarantined for 5-10 days with normal diet before study.
Animals were randomly divided into 5 groups including vehicle control, high dose, medium dose, low dose and positive control group. Ten to 14 rabbits were in one group. Each rabbit was fed with 30 gram of high fat diet followed by 120 gram of normal diet with free access to water.
The frequency of dosing was once a week. Dose was 80, 40, 20 mg/kg body weight respectively. Drug was given by intravenous injection via auricular vein with the volume of 5 mL.
5.1 body weight: body weight of each rabbit was determined once a week.
Resulted blood samples were kept still for 2 hours and then spin with 4,000 rpm for 10 min.
Abdomen cavity was opened. Whole blood was taken from heart. Heart was harvested along with 7 cm of aorta.
The aorta was dissected for 0.5 cm from aortic arch, split longitudinally and then kept in cryo-preservation tube for later lipid analysis. One piece of this sample was fixed in formalin for further pathological analysis.
The weight of liver was determined immediately. Two pieces of specimen were cut from hepatic lobe.
Resulted blood samples were kept still for 2 hours.
The aorta was dissected and opened for 7.5 cm from aortic arch longitudinally. Pictures were taken and atherosclerosis changing was analyzed.

For `CC(C)c1c(C(=O)Nc2ccccc2)c(-c2ccccc2)c(-c2ccc(F)cc2)n1CC[C@@H](O)C[C@@H](O)CC(=O)O` [Liptor, reference compound], the “calcification, pathological examination” value was “one animal with calcification”.
